Measurements reported in PubChem BioAssay AID1259407 (Chemical Carcinogenesis Research Information System (CCRIS), 2018).
Calls of active or inactive are those of the source. The rule behind the calls is not given here.

System: CCRIS mutagenicity, Ames/micronucleus/aberration tests
Experiment: CCRIS mutagenicity studies
Details: Test System: AMES SALMONELLA TYPHIMURIUM

Measured: mutagenic call

CC(C)(OOC(C)(C)c1ccccc1)c1ccccc1
inactive: Strain/Indicator: TA97, Metabolic Activation: HAMSTER, LIVER, S-9, AROCLOR 1254 (10 OR 30%), Method: PREINCUBATION inactive; negative | Strain/Indicator: TA97, Metabolic Activation: NONE, Method: PREINCUBATION inactive; negative | Strain/Indicator: TA97, Metabolic Activation: RAT, LIVER, S-9, AROCLOR 1254 (10 OR 30%), Method: PREINCUBATION inactive; negative | Strain/Indicator: TA97A, Metabolic Activation: MOUSE LIVER S-9, AROCLOR 1254, Method: PREINCUBATION inactive; negative | Strain/Indicator: TA97A, Metabolic Activation: NONE, Method: PREINCUBATION inactive; negative | Strain/Indicator: TA97A, Metabolic Activation: RAT LIVER S-9, AROCLOR 1254, Method: PREINCUBATION inactive; negative | Strain/Indicator: TA98, Metabolic Activation: HAMSTER, LIVER, S-9, AROCLOR 1254 (10 OR 30%), Method: PREINCUBATION inactive; negative | Strain/Indicator: TA98, Metabolic Activation: NONE, Method: FLUCTUATION (MICROTITER) inactive; negative | Strain/Indicator: TA98, Metabolic Activation: NONE, Method: PREINCUBATION inactive; negative | Strain/Indicator: TA98, Metabolic Activation: RAT LIVER S-9, AROCLOR 1254, Method: FLUCTUATION (MICROTITER) inactive; negative | Strain/Indicator: TA98, Metabolic Activation: RAT, LIVER, S-9, AROCLOR 1254 (10 OR 30%), Method: PREINCUBATION inactive; negative | Strain/Indicator: TA100, Metabolic Activation: HAMSTER, LIVER, S-9, AROCLOR 1254 (10 OR 30%), Method: PREINCUBATION inactive; negative | Strain/Indicator: TA100, Metabolic Activation: MOUSE LIVER S-9, AROCLOR 1254, Method: PREINCUBATION inactive; negative | Strain/Indicator: TA100, Metabolic Activation: NONE, Method: PREINCUBATION inactive; negative | Strain/Indicator: TA100, Metabolic Activation: RAT LIVER S-9, AROCLOR 1254, Method: PREINCUBATION inactive; negative | Strain/Indicator: TA100, Metabolic Activation: RAT, LIVER, S-9, AROCLOR 1254 (10 OR 30%), Method: PREINCUBATION inactive; negative | Strain/Indicator: TA102, Metabolic Activation: NONE, Method: PREINCUBATION inactive; negative | Strain/Indicator: TA102, Metabolic Activation: RAT LIVER S-9, AROCLOR 1254, Method: PREINCUBATION inactive; negative | Strain/Indicator: TA104, Metabolic Activation: MOUSE LIVER S-9, AROCLOR 1254, Method: PREINCUBATION inactive; negative | Strain/Indicator: TA104, Metabolic Activation: NONE, Method: PREINCUBATION inactive; negative | Strain/Indicator: TA104, Metabolic Activation: RAT LIVER S-9, AROCLOR 1254, Method: PREINCUBATION inactive; negative | Strain/Indicator: TA1535, Metabolic Activation: HAMSTER, LIVER, S-9, AROCLOR 1254 (10 OR 30%), Method: PREINCUBATION inactive; negative | Strain/Indicator: TA1535, Metabolic Activation: NONE, Method: PREINCUBATION inactive; negative | Strain/Indicator: TA1535, Metabolic Activation: RAT, LIVER, S-9, AROCLOR 1254 (10 OR 30%), Method: PREINCUBATION inactive; negative | Strain/Indicator: TA1537, Metabolic Activation: NONE, Method: FLUCTUATION (MICROTITER) inactive; negative | Strain/Indicator: TA1537, Metabolic Activation: RAT LIVER S-9, AROCLOR 1254, Method: FLUCTUATION (MICROTITER) inactive; negative | Strain/Indicator: TA7001, Metabolic Activation: NONE, Method: FLUCTUATION (MICROTITER) inactive; negative | Strain/Indicator: TA7001, Metabolic Activation: RAT LIVER S-9, AROCLOR 1254, Method: FLUCTUATION (MICROTITER) inactive; negative | Strain/Indicator: TA7002, Metabolic Activation: NONE, Method: FLUCTUATION (MICROTITER) inactive; negative | Strain/Indicator: TA7002, Metabolic Activation: RAT LIVER S-9, AROCLOR 1254, Method: FLUCTUATION (MICROTITER) inactive; negative | Strain/Indicator: TA7003, Metabolic Activation: NONE, Method: FLUCTUATION (MICROTITER) inactive; negative | Strain/Indicator: TA7003, Metabolic Activation: RAT LIVER S-9, AROCLOR 1254, Method: FLUCTUATION (MICROTITER) inactive; negative | Strain/Indicator: TA7004, Metabolic Activation: NONE, Method: FLUCTUATION (MICROTITER) inactive; negative | Strain/Indicator: TA7004, Metabolic Activation: RAT LIVER S-9, AROCLOR 1254, Method: FLUCTUATION (MICROTITER) inactive; negative | Strain/Indicator: TA7005, Metabolic Activation: NONE, Method: FLUCTUATION (MICROTITER) inactive; negative | Strain/Indicator: TA7005, Metabolic Activation: RAT LIVER S-9, AROCLOR 1254, Method: FLUCTUATION (MICROTITER) inactive; negative | Strain/Indicator: TA7006, Metabolic Activation: NONE, Method: FLUCTUATION (MICROTITER) inactive; negative | Strain/Indicator: TA7006, Metabolic Activation: RAT LIVER S-9, AROCLOR 1254, Method: FLUCTUATION (MICROTITER) inactive; negative
